By IC50 is commonly meant the midpoint of a concentration-inhibition curve.

The first experiment deals with T1, Short transient receptor potential channel 5 (Homo sapiens, UniProt Q9UL62).
T1 sequence (Q9UL62 whole entry): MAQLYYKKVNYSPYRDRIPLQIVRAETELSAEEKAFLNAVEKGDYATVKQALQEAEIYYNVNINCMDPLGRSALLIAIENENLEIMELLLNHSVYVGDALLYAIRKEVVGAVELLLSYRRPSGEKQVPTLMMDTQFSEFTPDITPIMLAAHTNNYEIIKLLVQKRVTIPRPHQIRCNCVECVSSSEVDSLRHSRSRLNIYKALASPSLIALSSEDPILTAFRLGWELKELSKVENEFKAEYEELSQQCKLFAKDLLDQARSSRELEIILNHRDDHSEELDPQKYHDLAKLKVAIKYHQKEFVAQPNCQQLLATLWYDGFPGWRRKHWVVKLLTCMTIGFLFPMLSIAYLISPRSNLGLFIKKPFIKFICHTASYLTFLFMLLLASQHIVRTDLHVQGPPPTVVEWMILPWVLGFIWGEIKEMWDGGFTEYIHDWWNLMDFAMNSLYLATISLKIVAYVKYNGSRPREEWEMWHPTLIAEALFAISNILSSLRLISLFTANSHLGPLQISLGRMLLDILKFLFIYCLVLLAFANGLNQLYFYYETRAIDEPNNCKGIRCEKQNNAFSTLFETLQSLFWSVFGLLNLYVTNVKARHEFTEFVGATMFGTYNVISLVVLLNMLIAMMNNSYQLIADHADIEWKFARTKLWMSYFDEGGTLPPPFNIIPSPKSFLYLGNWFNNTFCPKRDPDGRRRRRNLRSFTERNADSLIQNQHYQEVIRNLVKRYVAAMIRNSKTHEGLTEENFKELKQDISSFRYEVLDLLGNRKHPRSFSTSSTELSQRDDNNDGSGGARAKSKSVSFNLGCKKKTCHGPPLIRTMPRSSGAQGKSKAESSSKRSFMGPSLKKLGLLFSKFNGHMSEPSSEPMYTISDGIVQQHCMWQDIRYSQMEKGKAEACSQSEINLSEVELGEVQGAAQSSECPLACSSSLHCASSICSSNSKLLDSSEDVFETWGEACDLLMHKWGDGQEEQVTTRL
In words: Inhibition of TRPC5 (unknown origin) expressed in HEK293/TREx cells assessed as reduction in intracellular calcium level measured for 3 mins by fluo4 dye-based fluorescence assay. The format is cell-based. (Calcium assays in cells follow changes in intracellular calcium, usually with a dye or a luminescent sensor.)
Turning to `CCCOc1ccc2c(c1Cc1ccc(F)cc1)c(=O)n(CCCO)c(=O)n2C`, the IC50 was in the range of 1 to 395 nM.

For the compound `Cn1c(=O)n(CCCO)c(=O)c2c(Cc3ccc(F)cc3)c(Oc3cccc(OC(F)(F)F)c3)ccc21`, the IC50 was in the range of 1 to 395 nM.

Take `Cc1c(-c2cncc(Cl)c2)sc2c1c(=O)n(CCCO)c(=O)n2C`: the half-inhibitory concentration (IC50) was in the range of 21 to 1700 nM.

`Cc1c(-c2ccc(Cl)c(Cl)c2)sc2c1c(=O)n(CCCO)c(=O)n2C`: the concentration for half-maximal inhibition (IC50) is 21 to 1700 nM.

For the compound `Cn1c(=O)n(CCCO)c(=O)c2c1c(-c1cccc(Cl)c1)cn2Cc1ccc(Cl)cc1`, the concentration for half-maximal inhibition (IC50) is 408 to 7540 nM.

Take `Cn1c(=O)n(CCCO)c(=O)c2c(Cc3ccc(Cl)cc3)c(-c3cccc(OC(F)(F)F)c3)sc21`: the half-inhibitory concentration (IC50) was 21 to 1700 nM.

For the compound `Cn1c(=O)n(CCCO)c(=O)c2c(Cc3ccc(Cl)cc3)c(Oc3cccc(Cl)c3)ncc21`, the IC50 is 195 to 9800 nM.

In the case of `Cc1c(-c2cccc(OC(F)(F)F)c2)sc2c1c(=O)n(CCCO)c(=O)n2C`, the IC50 fell in the range of 21 to 1700 nM.

On to `CC(C)CCc1c(-c2cccc(Cl)c2)ncc2c1c(=O)n(CCCO)c(=O)n2C`, for which the half-maximal inhibitory concentration (IC50) lay within 195 to 9800 nM.

On to `CC(C)c1ccccc1-c1ncc2c(c1Cc1ccc(Cl)cc1)c(=O)n(CCCO)c(=O)n2C`, for which the IC50 lay within 195 to 9800 nM.

In the case of `Cn1c(=O)n(CCCO)c(=O)c2c(Cc3ccc(Cl)cc3)c(-c3ccc(Cl)cc3)sc21`, the IC50 is 21 to 1700 nM.

On to `Cn1c(=O)n(CCCO)c(=O)c2c1cc(-c1cccc(Cl)c1)n2Cc1ccc(Cl)cc1`, for which the half-inhibitory concentration (IC50) fell in the range of 408 to 7540 nM.

For the compound `Cn1c(-c2cccc(OC(F)(F)F)c2)cc2c1c(=O)n(CCCO)c(=O)n2C`, the 50% inhibitory concentration (IC50) was in the range of 408 to 7540 nM.

Consider `Cn1c(=O)n(CCCO)c(=O)c2c(Cc3ccccc3)c(Oc3cccc(Cl)c3)ccc21`, for which the IC50 lay in the range of 1 to 395 nM.

Turning to `Cn1c(=O)n(CCCO)c(=O)c2c(Cc3ccccc3)c(-c3cccc(OC(F)(F)F)c3)ncc21`, the 50% inhibitory concentration (IC50) is 195 to 9800 nM.

As to `Cc1c(-c2cccc(OC(F)(F)F)c2)[nH]c2c(=O)n(CCCO)c(=O)n(C)c12`, the half-inhibitory concentration (IC50) is 408 to 7540 nM.

As to `Cc1cn(Cc2ccc(Cl)cc2)c2c(=O)n(CCCO)c(=O)n(C)c12`, the IC50 is 408 to 7540 nM.

For the compound `Cn1c(=O)n(CCCO)c(=O)c2c1cc(-c1cccc(OC(F)(F)F)c1)n2Cc1ccc(Cl)cc1`, the IC50 was in the range of 408 to 7540 nM.

In the case of `CC(C)CCc1c(-c2cccc(OC(F)(F)F)c2)sc2c1c(=O)n(CCCO)c(=O)n2C`, the 50% inhibitory concentration (IC50) fell in the range of 21 to 1700 nM.

With `Cn1c(=O)n(CCCO)c(=O)c2c(Cc3ccc(Cl)cc3)c(-c3cccc(Cl)c3)sc21`, the IC50 fell in the range of 21 to 1700 nM.

On to `Cn1c(=O)n(CCCO)c(=O)c2c(C(O)c3ccc(Cl)cc3)c(-c3cccc(Cl)c3)sc21` (stereo not drawn), for which the concentration for half-maximal inhibition (IC50) lay within 21 to 1700 nM.

As to `O=c1c2c(Cc3ccc(Cl)cc3)c(-c3cccc(Cl)c3)oc2n(CCCO)c(=O)n1CCCO`, the half-inhibitory concentration (IC50) was 21 to 1700 nM.

For `Cn1c(=O)n(CCCO)c(=O)c2c(C(O)c3ccc(Cl)cc3)c(Oc3cccc(OC(F)(F)F)c3)sc21` (stereo not drawn), the IC50 was in the range of 21 to 1700 nM.

On to `Cc1c(-c2ccccc2OC(F)(F)F)sc2c1c(=O)n(CCCO)c(=O)n2C`, for which the IC50 was 21 to 1700 nM.

As to `Cc1c(-c2cccc(OC(F)(F)F)c2)n(C)c2c(=O)n(CCCO)c(=O)n(C)c12`, the IC50 lay in the range of 408 to 7540 nM.

As to `Cc1c(-c2ccc(Cl)cc2)sc2c1c(=O)n(CCCO)c(=O)n2C`, the concentration for half-maximal inhibition (IC50) is 21 to 1700 nM.

As for `CC(C)Oc1ccc2c(c1Cc1ccc(F)cc1)c(=O)n(CCCO)c(=O)n2C`, the IC50 lay in the range of 1 to 395 nM.

In the case of `Cc1c(-c2ccc(F)c(C(F)(F)F)c2)sc2c1c(=O)n(CCCO)c(=O)n2C`, the half-maximal inhibitory concentration (IC50) is 21 to 1700 nM.

With `CC(C)CCc1c(-c2ccc(Cl)cc2)ncc2c1c(=O)n(CCCO)c(=O)n2C`, the half-inhibitory concentration (IC50) lay within 195 to 9800 nM.

Turning to `Cc1c(-c2cccc(F)c2)sc2c1c(=O)n(CCCO)c(=O)n2C`, the concentration for half-maximal inhibition (IC50) fell in the range of 21 to 1700 nM.

For the compound `Cn1c(=O)n(CCCCO)c(=O)c2c(Cc3ccccc3)c(Oc3cccc(OC(F)(F)F)c3)ccc21`, the IC50 fell in the range of 1 to 395 nM.

As for `CC(C)c1ccccc1-c1cc2c(=O)n(CCCO)c(=O)n(C)c2cn1`, the IC50 fell in the range of 195 to 9800 nM.

Regarding `Cn1c(=O)n(CCCO)c(=O)c2c(Cc3ccccc3)c(Oc3cccc(OC(F)(F)F)c3)ccc21`, the 50% inhibitory concentration (IC50) was in the range of 1 to 395 nM.

With `Cc1c(-c2cccc(Cl)c2Cl)sc2c1c(=O)n(CCCO)c(=O)n2C`, the IC50 lay in the range of 21 to 1700 nM.

As to `Cn1c(=O)n(CCCO)c(=O)c2c(Cc3ccc(Cl)cc3)c(Oc3cccc(OC(F)(F)F)c3)sc21`, the 50% inhibitory concentration (IC50) was in the range of 21 to 1700 nM.

On to `CC(C)CCc1c(-c2ccccc2C(C)C)ncc2c1c(=O)n(CCCO)c(=O)n2C`, for which the IC50 was in the range of 195 to 9800 nM.

As to `Cn1c(=O)n(CCCO)c(=O)c2c(Cc3ccc(Cl)cc3)c(-c3cccc(Cl)c3)oc21`, the IC50 lay in the range of 21 to 1700 nM.

On to `CCCCOc1ccc2c(c1Cc1ccc(F)cc1)c(=O)n(CCCO)c(=O)n2C`, for which the IC50 fell in the range of 1 to 395 nM.

`Cn1c(=O)n(CCCO)c(=O)c2c(Cc3ccc(Cl)cc3)c(Oc3cccc(Cl)c3)sc21`: the IC50 lay within 21 to 1700 nM.

For `Cc1c(-c2ccccc2Cl)sc2c1c(=O)n(CCCO)c(=O)n2C`, the IC50 was 21 to 1700 nM.

`Cn1c(=O)n(CCCOC(=O)O)c(=O)c2c(Cc3ccc(Cl)cc3)c(-c3ccc(Cl)cc3)ncc21`: the 50% inhibitory concentration (IC50) was 195 to 9800 nM.

As for `Cc1c(-c2cccc(Cl)c2)sc2c1c(=O)n(CCCO)c(=O)n2C`, the 50% inhibitory concentration (IC50) fell in the range of 21 to 1700 nM.

Consider `Cc1c(-c2ccc3ccccc3c2)sc2c1c(=O)n(CCCO)c(=O)n2C`, for which the IC50 lay in the range of 21 to 1700 nM.

Regarding `COc1ccc2c(c1Cc1ccc(F)cc1)c(=O)n(CCCO)c(=O)n2C`, the IC50 is 1 to 395 nM.

For `Cc1c(-c2ccc(F)c(F)c2)sc2c1c(=O)n(CCCO)c(=O)n2C`, the concentration for half-maximal inhibition (IC50) is 21 to 1700 nM.

In the case of `CC(C)CC(O)c1c(-c2cccc(OC(F)(F)F)c2)sc2c1c(=O)n(CCCO)c(=O)n2C` (stereo not drawn), the IC50 was 21 to 1700 nM.

With `Cn1c(=O)n(CCCO)c(=O)c2c(Cc3ccccc3)c(-c3cccc(OC(F)(F)F)c3)ccc21`, the half-maximal inhibitory concentration (IC50) lay within 1 to 395 nM.

With `Cc1c(-c2cccc(OC(F)(F)F)c2)n(Cc2ccc(Cl)cc2)c2c(=O)n(CCCO)c(=O)n(C)c12`, the 50% inhibitory concentration (IC50) was 408 to 7540 nM.

The next experiment concerns the target T1, Short transient receptor potential channel 5. In words: Inhibition of human TRPC5 expressed in HEK293 cells assessed as reduction in gadolinium-induced calcium entry after 30 mins by fluo-4 dye based fluorescence assay. The format is cell-based.
Turning to `O=c1cc(-c2ccc(O)c(O)c2)oc2cc(O)cc(O)c12` [LUTEOLIN], the half-inhibitory concentration (IC50) was more than 10000 nM.

Regarding `O=c1cc(-c2ccc(O)cc2)oc2cc(O)cc(O)c12` [APIGENIN], the IC50 was more than 10000 nM.

Regarding `O=c1c(O)c(-c2cc(O)c(O)c(O)c2)oc2cc(O)cc(O)c12` [MYRICETIN], the IC50 is more than 10000 nM.

The target of the next experiment is T2, Short transient receptor potential channel 3 (Homo sapiens, UniProt Q13507).
T2 sequence (Q13507 whole entry): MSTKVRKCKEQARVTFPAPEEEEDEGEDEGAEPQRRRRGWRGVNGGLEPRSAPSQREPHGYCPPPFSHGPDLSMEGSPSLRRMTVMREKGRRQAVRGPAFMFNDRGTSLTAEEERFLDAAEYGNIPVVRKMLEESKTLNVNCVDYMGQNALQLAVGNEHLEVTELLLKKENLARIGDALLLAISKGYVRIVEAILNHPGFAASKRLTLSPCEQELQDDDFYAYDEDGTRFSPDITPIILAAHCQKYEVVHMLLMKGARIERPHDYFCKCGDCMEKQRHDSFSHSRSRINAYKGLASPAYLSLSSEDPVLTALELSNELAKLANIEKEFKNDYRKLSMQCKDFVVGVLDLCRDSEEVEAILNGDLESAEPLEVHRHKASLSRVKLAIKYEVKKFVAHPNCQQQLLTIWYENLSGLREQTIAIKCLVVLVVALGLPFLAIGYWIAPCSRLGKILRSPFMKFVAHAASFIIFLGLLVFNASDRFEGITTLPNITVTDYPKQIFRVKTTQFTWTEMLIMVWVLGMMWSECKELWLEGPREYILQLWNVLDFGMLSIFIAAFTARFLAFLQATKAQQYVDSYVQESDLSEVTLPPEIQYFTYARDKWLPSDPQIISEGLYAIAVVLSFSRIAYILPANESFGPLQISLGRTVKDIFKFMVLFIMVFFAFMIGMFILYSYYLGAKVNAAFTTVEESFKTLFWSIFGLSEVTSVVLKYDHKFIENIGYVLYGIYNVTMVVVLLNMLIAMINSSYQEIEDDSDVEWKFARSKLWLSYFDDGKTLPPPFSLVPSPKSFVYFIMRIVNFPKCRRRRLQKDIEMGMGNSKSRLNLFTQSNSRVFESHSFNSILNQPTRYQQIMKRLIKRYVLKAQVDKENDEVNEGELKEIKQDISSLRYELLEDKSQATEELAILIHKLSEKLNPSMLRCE
Description: Inhibition of YFP-tagged TRPC3 (unknown origin) expressed in HEK293 cells assessed as reduction carbhocol-induced receptor operated Calcium influx after 5 mins by fura-2-AM dye based assay. The format is cell-based.
`Cc1ccc(S(=O)(=O)Nc2ccc(-n3nc(C(F)(F)F)cc3C(F)(F)F)cc2)cc1`: the IC50 turned out to be 720 nM.

The target in a further experiment is ORAI1/STIM1 (Rattus norvegicus, UniProt P84903+Q5M848). In words: Inhibition of ORAI/STIM1 in thapsigargin treated rat RBL2H3 cells assessed as reduction in store-operated calcium entry after 5 mins by fura-2-AM dye based assay. The format is cell-based.
Sequence of ORAI1/STIM1 (P84903 whole entry): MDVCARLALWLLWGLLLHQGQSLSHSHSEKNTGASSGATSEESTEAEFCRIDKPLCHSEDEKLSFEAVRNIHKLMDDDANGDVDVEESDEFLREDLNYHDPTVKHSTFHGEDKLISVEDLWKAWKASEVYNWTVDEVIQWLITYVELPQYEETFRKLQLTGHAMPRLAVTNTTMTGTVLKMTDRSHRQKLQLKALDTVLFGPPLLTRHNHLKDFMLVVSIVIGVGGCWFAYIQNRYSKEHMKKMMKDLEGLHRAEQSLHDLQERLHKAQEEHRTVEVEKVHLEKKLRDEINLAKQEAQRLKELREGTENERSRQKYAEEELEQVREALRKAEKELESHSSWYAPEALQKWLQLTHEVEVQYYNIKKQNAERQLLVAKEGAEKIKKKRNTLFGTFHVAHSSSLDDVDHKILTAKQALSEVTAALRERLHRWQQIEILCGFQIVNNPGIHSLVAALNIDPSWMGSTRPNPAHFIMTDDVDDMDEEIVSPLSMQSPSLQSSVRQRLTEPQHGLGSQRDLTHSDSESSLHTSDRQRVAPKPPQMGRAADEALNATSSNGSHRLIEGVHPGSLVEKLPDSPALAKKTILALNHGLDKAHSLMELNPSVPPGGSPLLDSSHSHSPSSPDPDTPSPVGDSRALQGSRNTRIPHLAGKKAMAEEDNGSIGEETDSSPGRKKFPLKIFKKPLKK
Sequence of ORAI1/STIM1 (Q5M848 whole entry): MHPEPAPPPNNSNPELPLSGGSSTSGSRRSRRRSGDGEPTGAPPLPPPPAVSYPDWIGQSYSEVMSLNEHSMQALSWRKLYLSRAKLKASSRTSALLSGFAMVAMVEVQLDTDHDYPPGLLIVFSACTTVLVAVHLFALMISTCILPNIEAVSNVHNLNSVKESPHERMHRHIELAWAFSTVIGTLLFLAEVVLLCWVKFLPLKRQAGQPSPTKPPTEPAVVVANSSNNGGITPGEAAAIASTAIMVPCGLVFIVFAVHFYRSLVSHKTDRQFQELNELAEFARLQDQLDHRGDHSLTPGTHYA
As to `Cc1ccc(S(=O)(=O)Nc2ccc(-n3nc(C(F)(F)F)cc3C(F)(F)F)cc2)cc1`, the 50% inhibitory concentration (IC50) stood at 13100 nM.

For the origin of these results see ChEMBL document CHEMBL4376804, “Review of Transient Receptor Potential Canonical (TRPC5) Channel Modulators and Diseases” (J Med Chem, 2019).
